Counter-ions that a name gives are not always drawn. Blank lines part the entries; values can stand above or below the molecule they belong to.
Key:
[1] = Prodrug in vivo pharmacokinetics in dogs (plasma, LC-MS-MS); design: species or system Dog (Beagle); details: for AUC / Cmax / Tmax / half-life: Beagle, dog
Description: Test substances (Examples 4 and 71-73) were administered by oral gavage to groups of two dogs. Example 71 was also administered intravenously.
Blood samples were taken at various times after administration and submitted to analysis for the parent drug (Example 71) and pro-drug (Examples 72 and 73) using an LC-MS-MS assay. Pharmacokinetic parameters derived from the plasma analytical data were determined using Watson LIMS 7.2.003 (Thermo Fisher Scientific, Waltham, Mass.). The results are given in FIG. 1 and Tables 8, 9, 10, and 11.

[2] = Prodrug in vivo pharmacokinetics in monkeys (plasma, LC-MS-MS); design: species or system Monkey (Cynomolgus); details: for AUC / Cmax / Tmax / half-life: cynomolgus monkey; for F: calculated using IV AUC of 476 ng · h/mL
Description: Test substances (Examples 4 and 71-73) were administered by oral gavage to groups of two monkeys.
Blood samples were taken at various times after administration and submitted to analysis for the parent drug (Example 4 and Example 71) and pro-drug (Examples 72 and 73) using an LC-MS-MS assay. […] Pharmacokinetic parameters derived from the plasma analytical data were determined using Watson LIMS 7.2.003 (Thermo Fisher Scientific, Waltham, Mass.). The results are given in FIG. 2 and Tables 13, 14, and 15.

[3] = target: human KAT II (hKAT II) enzyme (Homo sapiens, UniProt Q8N5Z0); assay: KAT II Inhibition Spectra Assay; type: biochemical; details: Table 6; hKAT II, decrease in OD370, 37° C., 15-20 h; read-out: KATII IC50
Procedure, shortened: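 hKAT II (15 nM, 3× stock) converts L-kynurenine (3 mM, 3× stock) with α-ketoglutarate and PLP in Tris acetate; 15–20 h at 37 °C. Inhibition of the OD370 decrease read versus DMSO wells across a concentration range gives IC50.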

[4] = plasma, po, 2 mg/kg, Example 71 in dog plasma after oral Example 71 (2 mg/kg active), Dog 1
[5] = plasma, po, 2 mg/kg, Example 71 in dog plasma after oral Example 71 (2 mg/kg active), Dog 2
[6] = plasma, po, 2 mg/kg, Example 71 in dog plasma after oral Example 71 (2 mg/kg active), Mean
[7] = Cynomolgus, plasma, po, 3 mg/kg, Example 71 in monkey plasma after oral Example 71 (3 mg/kg active), Mean
[8] = Cynomolgus, plasma, po, 3 mg/kg, Example 71 in monkey plasma after oral Example 71 (3 mg/kg active), Monkey 1
[9] = Cynomolgus, plasma, po, 3 mg/kg, Example 71 in monkey plasma after oral Example 71 (3 mg/kg active), Monkey 2
[10] = Example 71 in monkey plasma after oral Example 71 (3 mg/kg active), Mean
[11] = Example 71 in monkey plasma after oral Example 71 (3 mg/kg active), Monkey 1
[12] = Example 71 in monkey plasma after oral Example 71 (3 mg/kg active), Monkey 2
[13] = plasma, po, 1 mg/kg, Example 72 in dog plasma after oral Example 72 (1 mg/kg active), Dog 1
[14] = plasma, po, 1 mg/kg, Example 72 in dog plasma after oral Example 72 (1 mg/kg active), Dog 2
[15] = plasma, po, 1 mg/kg, Example 72 in dog plasma after oral Example 72 (1 mg/kg active), Mean

human KAT II (hKAT II) enzyme, sequence (Q8N5Z0 30-425): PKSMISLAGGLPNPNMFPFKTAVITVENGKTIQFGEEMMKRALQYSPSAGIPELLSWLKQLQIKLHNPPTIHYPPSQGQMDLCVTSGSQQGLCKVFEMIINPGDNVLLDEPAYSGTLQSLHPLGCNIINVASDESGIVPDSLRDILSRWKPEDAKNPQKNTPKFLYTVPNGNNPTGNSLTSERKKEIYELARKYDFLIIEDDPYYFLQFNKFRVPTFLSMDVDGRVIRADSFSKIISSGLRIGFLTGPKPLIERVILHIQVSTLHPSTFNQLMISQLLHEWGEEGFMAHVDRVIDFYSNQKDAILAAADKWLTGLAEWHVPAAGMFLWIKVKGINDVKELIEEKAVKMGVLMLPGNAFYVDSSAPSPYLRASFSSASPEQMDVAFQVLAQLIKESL

Compound: Cl.N[C@H]1Cc2cc(Oc3ccccc3)ccc2N(O)C1=O [Example 71, (3S)-3-amino-1-hydroxy-6-phenoxy-3,4-dihydroquinolin-2(1H)-one, hydrochloride salt]
AUC ([1]; in vivo, exposure of Example 71 in dogs following intravenous administration of Example 71 at 0.5 mg/kg, read-out: AUC): 247 ng·h/mL
Cmax [1, 4]: 25.4 ng/mL
Tmax [1, 4]: 15 min
half-life [1, 4]: 26.3 min
AUC ([1]; plasma, po, 2 mg/kg, Example 71 in dog plasma after oral Example 71 (2 mg/kg active), Dog 1, read-out: AUC): 10.3 ng·h/mL
AUC ([1]; plasma, po, 2 mg/kg, Example 71 in dog plasma after oral Example 71 (2 mg/kg active), Dog 1, read-out: AUC Extrap): 10.7 ng·h/mL
Cmax [1, 5]: 15.4 ng/mL
Tmax [1, 5]: 15 min
half-life [1, 5]: 17.9 min
AUC ([1]; plasma, po, 2 mg/kg, Example 71 in dog plasma after oral Example 71 (2 mg/kg active), Dog 2, read-out: AUC): 12.2 ng·h/mL
AUC ([1]; plasma, po, 2 mg/kg, Example 71 in dog plasma after oral Example 71 (2 mg/kg active), Dog 2, read-out: AUC Extrap): 12.5 ng·h/mL
Cmax [1, 6]: 20.4 ng/mL
Tmax [1, 6]: 15 min
half-life [1, 6]: 22.1 min
AUC ([1]; plasma, po, 2 mg/kg, Example 71 in dog plasma after oral Example 71 (2 mg/kg active), Mean, read-out: AUC): 11.3 ng·h/mL
AUC ([1]; plasma, po, 2 mg/kg, Example 71 in dog plasma after oral Example 71 (2 mg/kg active), Mean, read-out: AUC Extrap): 11.6 ng·h/mL
% AUC Extrap ([1]; Example 71 in dog plasma after oral Example 71 (2 mg/kg active), Dog 1): 3.44%
% AUC Extrap ([1]; Example 71 in dog plasma after oral Example 71 (2 mg/kg active), Dog 2): 2.35%
% AUC Extrap ([1]; Example 71 in dog plasma after oral Example 71 (2 mg/kg active), Mean): 2.9%
F ([1]; Example 71 in dog plasma after oral Example 71 (2 mg/kg active), calculated using IV AUC of 247 ng · h/mL, Dog 1): 1.0%
F ([1]; Example 71 in dog plasma after oral Example 71 (2 mg/kg active), calculated using IV AUC of 247 ng · h/mL, Dog 2): 1.3%
F ([1]; Example 71 in dog plasma after oral Example 71 (2 mg/kg active), calculated using IV AUC of 247 ng · h/mL, Mean): 1.2%
AUC ([2]; Cynomolgus, in vivo, plasma exposure of Example 71 in monkeys following intravenous administration of Example 71 at 0.5 mg/kg, read-out: AUC): 476 ng·h/mL
Cmax [2, 7]: 53.4 ng/mL
Tmax [2, 7]: 22.8 min
half-life [2, 7]: 52.9 min
Cmax [2, 8]: 44 ng/mL
Tmax [2, 8]: 15 min
half-life [2, 8]: 62.4 min
Cmax [2, 9]: 62.8 ng/mL
Tmax [2, 9]: 30 min
half-life [2, 9]: 43.4 min
% AUC Extrap [2, 10]: 1.28%
% AUC Extrap [2, 11]: 2.19%
% AUC Extrap [2, 12]: 0.366%
F [2, 10]: 3.2%
F [2, 11]: 2.2%
F [2, 12]: 4.2%
AUC ([2]; plasma, po, 3 mg/kg, Example 71 in monkey plasma after oral Example 71 (3 mg/kg active), Mean, read-out: AUC): 94.8 ng·h/mL
AUC ([2]; plasma, po, 3 mg/kg, Example 71 in monkey plasma after oral Example 71 (3 mg/kg active), Mean, read-out: AUC Extrap): 95.4 ng·h/mL
AUC ([2]; plasma, po, 3 mg/kg, Example 71 in monkey plasma after oral Example 71 (3 mg/kg active), Monkey 1, read-out: AUC): 55.5 ng·h/mL
AUC ([2]; plasma, po, 3 mg/kg, Example 71 in monkey plasma after oral Example 71 (3 mg/kg active), Monkey 1, read-out: AUC Extrap): 56.7 ng·h/mL
AUC ([2]; plasma, po, 3 mg/kg, Example 71 in monkey plasma after oral Example 71 (3 mg/kg active), Monkey 2, read-out: AUC): 134 ng·h/mL
AUC ([2]; plasma, po, 3 mg/kg, Example 71 in monkey plasma after oral Example 71 (3 mg/kg active), Monkey 2, read-out: AUC Extrap): 134 ng·h/mL
IC50 [3]: 22.7 nM

Compound: N[C@H]1Cc2cc(Oc3ccc(Cl)c(F)c3)ccc2N(O)C1=O [Example 167, (3S)-3-amino-6-(4-chloro-3-fluorophenoxy)-1-hydroxy-3,4-dihydroquinolin-2(1H)-one, trifluoroacetate salt]
IC50 [3]: 105 nM

Compound: N[C@H]1Cc2cc(Oc3cc(F)cc(Cl)c3)ccc2N(O)C1=O [Example 168, (3S)-3-amino-6-(3-chloro-5-fluorophenoxy)-1-hydroxy-3,4-dihydroquinolin-2(1H)-one, trifluoroacetate salt]
IC50 [3]: 54.3 nM

Compound: N[C@H]1Cc2cc(Oc3cncc(Cl)c3)ccc2N(O)C1=O [Example 170, (3S)-3-amino-6-[(5-chloropyridin-3-yl)oxy]-1-hydroxy-3,4-dihydroquinolin-2(1H)-one, ammonium salt]
IC50 [3]: 28.9 nM

More lines, now with the values ahead:

AUC ([1]; plasma, iv, 0.47 mg/kg, exposure of Example 72 in dogs following intravenous administration of Example 72 at 0.47 mg/kg, read-out: AUC): 497 ng·h/mL
Cmax [1, 13]: 142 ng/mL
Tmax [1, 13]: 30 min
half-life [1, 13]: 139 min
AUC ([1]; plasma, po, 1 mg/kg, Example 72 in dog plasma after oral Example 72 (1 mg/kg active), Dog 1, read-out: AUC): 402 ng·h/mL
AUC ([1]; plasma, po, 1 mg/kg, Example 72 in dog plasma after oral Example 72 (1 mg/kg active), Dog 1, read-out: AUC Extrap): 455 ng·h/mL
Cmax [1, 14]: 248 ng/mL
Tmax [1, 14]: 60 min
half-life [1, 14]: 116 min
AUC ([1]; plasma, po, 1 mg/kg, Example 72 in dog plasma after oral Example 72 (1 mg/kg active), Dog 2, read-out: AUC): 721 ng·h/mL
AUC ([1]; plasma, po, 1 mg/kg, Example 72 in dog plasma after oral Example 72 (1 mg/kg active), Dog 2, read-out: AUC Extrap): 790 ng·h/mL
Cmax [1, 15]: 195 ng/mL
Tmax [1, 15]: 45 min
half-life [1, 15]: 128 min
AUC ([1]; plasma, po, 1 mg/kg, Example 72 in dog plasma after oral Example 72 (1 mg/kg active), Mean, read-out: AUC): 562 ng·h/mL
AUC ([1]; plasma, po, 1 mg/kg, Example 72 in dog plasma after oral Example 72 (1 mg/kg active), Mean, read-out: AUC Extrap): 623 ng·h/mL
% AUC Extrap ([1]; Example 72 in dog plasma after oral Example 72 (1 mg/kg active), Dog 1): 11.7%
% AUC Extrap ([1]; Example 72 in dog plasma after oral Example 72 (1 mg/kg active), Dog 2): 8.77%
% AUC Extrap ([1]; Example 72 in dog plasma after oral Example 72 (1 mg/kg active), Mean): 10.2%
F ([1]; Example 72 in dog plasma after oral Example 72 (1 mg/kg active), calculated using IV AUC of 497 ng · h/mL, Dog 1): 38%
F ([1]; Example 72 in dog plasma after oral Example 72 (1 mg/kg active), calculated using IV AUC of 497 ng · h/mL, Dog 2): 54%
F ([1]; Example 72 in dog plasma after oral Example 72 (1 mg/kg active), calculated using IV AUC of 497 ng · h/mL, Mean): 46%
Plasma levels of Example 72 ([2]; monkeys, oral gavage of Example 72, all time points): below the limit of quantitation
Compound: CN(C)C(=O)ON1C(=O)[C@@H](N)Cc2cc(Oc3ccccc3)ccc21 [Example 72, (3S)-3-amino-1-[(dimethylcarbamoyl)oxy]-6-phenoxy-3,4-dihydroquinolin-2(1H)-one]

IC50 [3]: 123 nM
Compound: N[C@H]1Cc2cc(Oc3cccc(OC(F)(F)F)c3)ccc2N(O)C1=O [Example 169, (3S)-3-amino-1-hydroxy-6-[3-(trifluoromethoxy)phenoxy]-3,4-dihydroquinolin-2(1H)-one, trifluoroacetate salt]

IC50 [3]: 42.8 nM
Compound: COc1ccc(Oc2ccc3c(c2)CC(N)C(=O)N3O)cn1 (stereo not shown) [Example 171, 3-amino-1-hydroxy-6-[(6-methoxypyridin-3-yl)oxy]-3,4-dihydroquinolin-2(1H)-one, ammonium salt]

Reference: patent US8183238B2, “Bicyclic and tricyclic compounds as KAT II inhibitors” (priority 2009, dated 2012)
